# Experimental data as given in patent publication US4754059A, “Omega cycloalkyl prostaglandins” (G. D. Searle & Co., priority 1984, dated 1988).
# Columns and labels:
# gastric secretions = experiment: Dog gastric antisecretory activity (histamine-stimulated, Thomas-type gastric cannula); assay type: in vivo, beagle dogs; conditions: for ED50: Canis lupus familiaris, po, histamine stimulation
# Description: The standard test used to detect gastric antisecretory activity is described as follows.
# Adult female beagle dogs weighing 6-11 kg. are prepared with whole stomach simple Thomas-type gastric cannulas.
# Following full recovery from the surgical implantation of the gastric cannula, the dogs are trained to stand quietly, though fully conscious, in Pavlov-type dog restraining slings and are accustomed to intravenous histamine infusion.
# Experiments are initiated by depriving dogs of food, but not water, for 18 hours. With an initial infusion of 0.15M sodium chloride, at a constant rate of 6.5 ml/hr, gastric secretions collected in plastic bottles affixed to the cannula, are taken at 15 minute intervals and measured for volume to the nearest 0.1 ml. Following a 30-45 minute basal secretion period, the collection bottles are removed, dosing plugs inserted, and compound administered. A 3.0 ml saline wash follows immediately.
# After the end of a 30 minute drug absorption period the stomachs are emptied, collection bottles again attached, and the collections resumed at 30 minute intervals. Simultaneously, the saline infusion is replaced with a continuous intravenous infusion of histamine dihydrochloride in saline at 15 ug/kg/hr for four hours. Gastric samples are analysed for pH and titratable acidity determinations.
# An analysis of the data for each measured or derived variable compares observations recorded following treatment with variables obtained for the same group of animals receiving histamine stimulation alone. Three parameters, gastric juice volume (ml/30 min), acid concentration (mEq/L), and total acid output (mEq/30 min) are analyzed individually. The data thus obtained are analyzed using interval-by-interval paired Student's t-test or two-way analysis of variance to achieve an indication of potency and duration of action. Percentage inhibition is calculated using pooled mean values for the four hour treatment period. Duration of activity is defined as the length of time of significant inhibition.
# [1] = Diarrheogenic activity in rats; assay type: in vivo, Charles River rats
# Description: Diarrhea is an undesirable side effect commonly associated with antisecretory and cytoprotective prostaglandins.
# Groups of six adult male Charles River rats, weight range 180 to 200 grams, are fasted for 24 hours prior to administering the test substance. The prostaglandin to be tested is administered intragastrically in iso-osmotic phosphate buffer at a volume of 10 ml/kg at doses ranging from 100 to 3000 microgram/kg. Control animals receive only the vehicle. The rats are placed in individual wire mesh cages and the trays lined with brown paper. Diarrhea is assessed at hourly intervals on an all or none basis for up to eight hours after administration of the prostaglandin. Diarrhea is defined as any loose or watery stool. ED50 values are assessed for each hourly diarrheogenic response.
# [2] = test system: lower esophageal sphincter; experiment: Contraction of the lower esophageal sphincter; conditions: no method given
# [3] = intragastric administration, dog
diarrheogenic properties (in words) [1],SMILES,"Dog antisecretory activity (in words) (gastric secretions; intragastric administration, dog, doses 0.3 and 1.0)",ED50 (gastric secretions; [3]),antisecretory activity (in words) (gastric secretions),property of contracting the lower esophageal sphincter [2]
–,"COC(=O)CCC/C=C\C[C@H]1C(=O)C[C@@H](O)[C@@H]1/C=C/CC(C)(O)CCC1CCCC1 (relative stereo) [Compound II, reference compound]",Inactive at 0.3 and 1.0,–,–,–
–,"COC(=O)CC/C=C\CC[C@H]1C(=O)C[C@@H](O)[C@@H]1/C=C/CC(C)(O)CCC1(C)CC1 (relative stereo) [Example 7, methyl 7-[3α-hydroxy-2β-4-hydroxy-4-methyl-6-(1-methylcyclopropyl)-1-trans-hexenyl-5-oxocyclopentane]-1α-hept-4-cis-enoate]",–,0.3 µg/kg,–,–
low,COC(=O)CC/C=C\CC[C@H]1C(=O)C[C@@H](O)[C@@H]1/C=C/CC(C)(O)CCC1CCCC1 (relative stereo) [Example 2],–,0.3 µg/kg,potent,contracting the lower esophageal sphincter
low,COC(=O)CC/C=C\CC[C@H]1C(=O)C[C@@H](O)[C@@H]1/C=C/CC(C)(O)CCC1CCC1 (relative stereo) [Example 3],–,–,potent,–
–,COC(=O)CC/C=C\CC[C@H]1C(=O)C[C@@H](O)[C@@H]1/C=C/CC(C)(O)CCC1CC1 (relative stereo) [Example 1],–,0.2 µg/kg,–,–
